Values of other authors in patent US20250283177A1, “BIOMARKERS AND METHODS OF USE THEREOF FOR TREATMENT OF PERIPHERAL T-CELL LYMPHOMA” (BOARD OF REGENTS OF THE UNIVERSITY OF NEBRASKA, priority 2022, published 2025).
Like-named read-outs stand apart in the source and are kept apart here.

B1: mogamulizumab (antibody, chains of the INN, looked up, V domains shown)
VH: EVQLVESGGDLVQPGRSLRLSCAASGFIFSNYGMSWVRQAPGKGLEWVATISSASTYSYYPDSVKGRFTISRDNAKNSLYLQMNSLRVEDTALYYCGRHSDGNFAFGYWGQGTLVTVSS
VL: DVLMTQSPLSLPVTPGEPASISCRSSRNIVHINGDTYLEWYLQKPGQSPQLLIYKVSNRFSGVPDRFSGSGSGTDFTLKISRVEAEDVGVYYCFQGSLLPWTFGQGTKVEIK

How the values were obtained:
[1] = system: peripheral T-cell lymphoma (PTCL); details: for Overall response rate by common subtype: Phase II studies
[2] = system: subgroups of PTCL

| Molecule | Overall response rate by common subtype ([1]; subtype AITL) [%] | Overall response rate by common subtype ([1]; subtype ALCL) [%] | Overall response rate by common subtype ([1]; subtype PTCL-NOS) [%] | Benefit in PTCL subgroup ([2]; ALK+ALCL) | Responsiveness to therapy ([1]; ALK(−) ALCL) | Benefit in PTCL subgroup ([2]; CD30+ PTCL, particularly ALCL) | Benefit in PTCL subgroup ([2]; ATLL) |
| --- | --- | --- | --- | --- | --- | --- | --- |
| O=C(/C=C/c1cccc(S(=O)(=O)Nc2ccccc2)c1)NO [Belinostat] | 46 | 15 | 23 | – | – | – | – |
| C#CCC(Cc1cnc2nc(N)nc(N)c2n1)c1ccc(C(=O)N[C@@H](CCC(=O)O)C(=O)O)cc1 (stereo partly shown) [Pralatrexate] | 8 | 29 | 31 | – | – | – | – |
| C[C@@H](Oc1cc(-c2cnn(C3CCNCC3)c2)cnc1N)c1c(Cl)ccc(F)c1Cl [Crizotinib] | – | – | – | striking benefits | – | – | – |
| Brentuximab vedotin | 54 | 86 | 33 | – | highly responsive | striking benefits | – |
| B1 | – | – | – | – | – | – | striking benefits |
